Data reported in patent EP4603105A1, “PHARMACEUTICAL COMPOSITION CONTAINING CYCLIC COMPOUND HAVING SELECTIVE KRAS INHIBITORY EFFECT AGAINST HRAS AND NRAS” (CHUGAI SEIYAKU KABUSHIKI KAISHA, priority 2022, dated 2024).
Where a SMILES comes first, the peptide text is derived from it. Bridges are numbered along the chain shown (N, C = ends). [ ]: non-standard residue; d: D form. The star is where a group is joined. hPhe(3-Cl-4-CF3) = N[C@@H](CCc1ccc(C(F)(F)F)c(Cl)c1)C(=O)O; NPrPhe(4-CF3) = CCCN[C@@H](Cc1ccc(C(F)(F)F)cc1)C(=O)O; Pro(4-spirocPr) = O=C(O)[C@@H]1CC2(CC2)CN1; NMeGly(cPent) = CN[C@H](C(=O)O)C1CCCC1; NMeD = CN[C@@H](CC(=O)O)C(=O)O; NMeL = CN[C@@H](CC(C)C)C(=O)O; Morpholide = C1CN(*)CCO1; Ac5c = NC1(C(=O)O)CCCC1; Aze = O=C(O)[C@@H]1CCN1; Sar = CNCC(=O)O

How the values were obtained:
[1] = target: GDP-bound KRAS wild-type protein (Homo sapiens, UniProt P01116); assay: Binding to KRAS by surface plasmon resonance (SPR), dissociation constant KD; details: 1:1 binding model
Outline: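 Affinity is measured by surface plasmon resonance at 30°C against captured, GDP-loaded RAS carrying a biotinylated Avi tag. Compounds are titrated by single-cycle kinetics, and KD comes from a 1:1 fit.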

[2] = target: GDP-bound NRAS wild-type protein (Homo sapiens, UniProt P01111); assay: Binding to NRAS by surface plasmon resonance (SPR), KD and KD ratio to KRAS
Outline: (§1)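 SPR, 30°C: Avi-biotin RAS·GDP captured via Biotin CAPture (~100–300 RU); running buffer HBS pH 7.4, 1 mM DTT, 10 mM MgCl2, 0.01% Tween 20, 10 µM GDP, 4% DMSO. Single-cycle kinetics, 100 µL/min, 75 s injections; 1:1 model → KD.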

HRAS wild-type protein = HRAS wild-type protein (Homo sapiens, UniProt P01112); assay: Binding to HRAS by surface plasmon resonance (SPR), KD and KD ratio to KRAS
Outline: as §1

[3] = test system: human lung cancer strain NCI-H441; type: cell-based
Outline: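 Proliferation was scored by […] measured after the reagent was added to cultures kept at 37°C in 5% carbon dioxide.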

[4] = ratio of the KD value with respect to GDP-bound NRAS wild-type protein to the KD value with respect to KRAS
[5] = ratio of the KD value with respect to HRAS wild-type protein to the KD value with respect to KRAS
[6] = ratio of KD for GDP-bound NRAS wild-type protein to KD for KRAS
[7] = ratio of KD for HRAS wild-type protein to KD for KRAS

Sequence of GDP-bound NRAS wild-type protein (P01111 whole entry): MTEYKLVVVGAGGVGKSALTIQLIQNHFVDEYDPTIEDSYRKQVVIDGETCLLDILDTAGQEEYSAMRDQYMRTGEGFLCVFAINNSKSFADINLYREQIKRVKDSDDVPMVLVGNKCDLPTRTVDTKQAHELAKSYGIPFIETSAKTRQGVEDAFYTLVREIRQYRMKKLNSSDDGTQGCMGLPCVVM
Sequence of GDP-bound KRAS wild-type protein (P01116 1-188 isoform P01116-2): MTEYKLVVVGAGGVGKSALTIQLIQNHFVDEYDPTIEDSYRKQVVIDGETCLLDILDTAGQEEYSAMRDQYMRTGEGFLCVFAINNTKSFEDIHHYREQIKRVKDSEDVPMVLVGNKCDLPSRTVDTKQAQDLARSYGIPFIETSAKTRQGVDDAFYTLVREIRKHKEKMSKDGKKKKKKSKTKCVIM
Sequence of HRAS wild-type protein (P01112 whole entry): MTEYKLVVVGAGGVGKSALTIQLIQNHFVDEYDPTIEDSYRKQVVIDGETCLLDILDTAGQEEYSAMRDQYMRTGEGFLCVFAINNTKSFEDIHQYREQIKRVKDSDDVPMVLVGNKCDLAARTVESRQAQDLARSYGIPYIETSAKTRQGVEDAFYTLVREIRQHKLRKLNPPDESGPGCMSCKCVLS

| SMILES | Kd ([1]; Single Cycle Kinetics) | IC50 [3] | Kd [1] | NRAS /KRAS [2, 4] | HRAS /KRAS (HRAS wild-type protein; [5]) | NRAS /KRAS [2, 6] | HRAS /KRAS (HRAS wild-type protein; [7]) | NRAS /KRAS ([2]; ratio of KD value for GDP-bound NRAS wild-type protein to KD value for KRAS (SPR)) | HRAS /KRAS (HRAS wild-type protein; ratio of KD value for HRAS wild-type protein to KD value for KRAS (SPR)) |
| --- | --- | --- | --- | --- | --- | --- | --- | --- | --- |
| CC[C@H](C)[C@@H]1NC(=O)[C@H](CC(C)C)N(C)C(=O)C[C@@H](C(=O)N(C)C)N(C)C(=O)[C@H](C2CCCC2)N(C)C(=O)C2(CCCC2)NC(=O)[C@@H]2CCCN2C(=O)[C@H](CCc2ccc(C(F)(F)F)c(Cl)c2)NC(=O)CN(C)C(=O)[C@H](Cc2ccc(C)cc2)N2CC=CCOC[C@H](C2=O)N(C)C(=O)CN(C)C1=O [PP0629] | 2.4 nM | 45.1 nM |  | B (a compound having 3 or more and less than 10 is denoted as B) | C (A compound having a KD ratio of 0.1 or more and less than 3 is denoted as C) |  |  |  |  |
| CCO[C@@H]1C[C@H]2C(=O)NC3(CCC3)C(=O)N(C)[C@@H](C3CCCC3)C(=O)N(C)[C@H](C)CC(=O)N(C)[C@@H](CC(C)C)C(=O)N[C@@H]([C@@H](C)CC)C(=O)N(C)CC(=O)N(C)[C@H]3C/C=C\CCN(C3=O)[C@@H](Cc3ccc(F)cc3)C(=O)N(C)CC(=O)N[C@@H](CCc3cc(F)c(C(F)(F)F)c(F)c3)C(=O)N2C1 [PP1494] | 0.58 nM | 142 nM |  |  |  |  |  | B (a compound having 3 or more and less than 10 is denoted as B) | B (a compound having 3 or more and less than 10 is denoted as B) |
| CCC[C@@H]1C[C@H]2C(=O)NC3(CCCC3)C(=O)N(C)[C@@H](C3CCCC3)C(=O)N(C)[C@H](C(=O)N(C)C)CC(=O)N(C)[C@@H](CC)C(=O)N[C@@H]([C@@H](C)CC)C(=O)N(C)CC(=O)N(C)[C@H]3C/C=C\CCN(C3=O)[C@@H](Cc3ccc(C)cc3)C(=O)N(C)CC(=O)N[C@@H](CCc3cc(F)c(C(F)(F)F)c(F)c3)C(=O)N2C1 [PP2227] | 0.27 nM | 50.3 nM |  | A (a compound having 10 or more and less than 20 is denoted as A) | A (a compound having 10 or more and less than 20 is denoted as A) |  |  |  |  |
| CCO[C@@H]1C[C@H]2C(=O)NC3(CC(C)(C)C3)C(=O)N(C)[C@@H](C3CCCC3)C(=O)N(C)[C@H](C(=O)N(C)CC)CC(=O)N(C)[C@H]3C/C=C/c4ccc(cc4)C[C@@H](C(=O)N(C)CC(=O)N[C@@H](CCc4ccc(Cl)c(Cl)c4)C(=O)N2C1)N1CC/C=C\C[C@@H](C1=O)N(C)C(=O)CN(C)C(=O)[C@H]([C@@H](C)CC)NC3=O [PP3056] |  | 151 nM | 1.4 nM |  |  | A (a compound having 10 or more and less than 20 is denoted as A) | A (a compound having 10 or more and less than 20 is denoted as A) |  |  |
| CCCN1C(=O)CN(C)C(=O)[C@@H]2CCN2C(=O)[C@H]([C@@H](C)CC)NC(=O)[C@H](CC(C)C)N(C)C(=O)C[C@@H](C(=O)N2CCOCC2)N(C)C(=O)[C@H](C2CCCC2)N(C)C(=O)C2(CCCC2)NC(=O)[C@@H]2CC3(CC3)CN2C(=O)[C@H](CCc2ccc(C(F)(F)F)c(Cl)c2)NC(=O)CN(C)C(=O)[C@@H]1Cc1ccc(C(F)(F)F)cc1 [PP0308] ([NMeL]I[Aze][Sar][NPrPhe(4-CF3)][Sar][hPhe(3-Cl-4-CF3)][Pro(4-spirocPr)][Ac5c][NMeGly(cPent)][NMeD]-Morpholide; lactam N-11) |  | 56 nM | 1.1 nM |  |  | B (a compound having 3 or more and less than 10 is denoted as B) | B (a compound having 3 or more and less than 10 is denoted as B) |  |  |

These reach a lower IC50 [3]. Values come first.

| Kd ([1]; Single Cycle Kinetics) | IC50 [3] | Kd [1] | SMILES | NRAS /KRAS [2, 4] | HRAS /KRAS (HRAS wild-type protein; [5]) | NRAS /KRAS [2, 6] | HRAS /KRAS (HRAS wild-type protein; [7]) | NRAS /KRAS ([2]; ratio of KD value for GDP-bound NRAS wild-type protein to KD value for KRAS (SPR)) | HRAS /KRAS (HRAS wild-type protein; ratio of KD value for HRAS wild-type protein to KD value for KRAS (SPR)) |
| --- | --- | --- | --- | --- | --- | --- | --- | --- | --- |
| 0.41 nM | 33.1 nM |  | CCC[C@@H]1C[C@H]2C(=O)NC3(CCCC3)C(=O)N(C)[C@@H](C3CCCC3)C(=O)N(C)[C@H](C(=O)N(C)C)CC(=O)N(C)[C@@H](CC(C)C)C(=O)N[C@@H]([C@@H](C)CC)C(=O)N(C)CC(=O)N(C)[C@H]3C/C=C\CCN(C3=O)[C@@H](Cc3ccc(C)cc3)C(=O)N(C)CC(=O)N[C@@H](CCc3cc(F)c(C(F)(F)F)c(F)c3)C(=O)N2C1 [PP2193] | A (a compound having 10 or more and less than 20 is denoted as A) | A (a compound having 10 or more and less than 20 is denoted as A) |  |  |  |  |
|  | 8.3 nM | 0.086 nM | CCCC[C@H]1C(=O)N[C@@H]([C@@H](C)CC)C(=O)N(C)CC(=O)N(C)[C@H]2C/C=C\CCN(C2=O)[C@@H](Cc2ccc(C(F)(F)F)cc2)C(=O)N(C)CC(=O)N[C@@H](CCc2ccc(C(F)(F)F)c(Cl)c2)C(=O)N2C[C@H](OCC)C[C@H]2C(=O)NC2(CCC2)C(=O)N(C)[C@@H](C2CCCC2)C(=O)N(C)[C@H](C(=O)N(C)CC)CC(=O)N1C [PP2841] |  |  | A (a compound having 10 or more and less than 20 is denoted as A) | A (a compound having 10 or more and less than 20 is denoted as A) |  |  |
|  | 7.1 nM | 0.21 nM | CCO[C@@H]1C[C@H]2C(=O)NC3(CC(C)(C)C3)C(=O)N(C)[C@@H](C3CCCC3)C(=O)N(C)[C@H](C(=O)N(C)C)CC(=O)N(C)[C@@H]([C@@H](C)OC)C(=O)N[C@@H]([C@@H](C)CC)C(=O)N(C3CC3)CC(=O)N(C)[C@H]3C/C=C\CCN(C3=O)[C@@H](Cc3ccc(C(F)(F)F)cc3)C(=O)N(C)CC(=O)N[C@@H](CCc3ccc(C(F)(F)F)c(OC)c3)C(=O)N2C1 [PP3200] |  |  | A (a compound having 10 or more and less than 20 is denoted as A) | A (a compound having 10 or more and less than 20 is denoted as A) |  |  |
